# From PMC6804459 (Acta Pharmaceutica Sinica. B, 2019)
# Target: recombinant human PrP (rhPrP, PrP^C) (Homo sapiens, UniProt P04156)
# Test: biochemical
# Type: binding
compound,measurement,value
Cc1cc(Nc2ccc(NC(=O)c3ccc(Nc4ccnc5ccccc45)cc3)cc2)nc(N)n1 [SGI-1027],Kd,1610 nM
